Test results taken from ChEMBL document CHEMBL3627601, “Poly(amidoamine) dendrimers show carbonic anhydrase inhibitory activity against α-, β-, γ- and η-class enzymes” (Bioorg Med Chem, 2015).

Experiments:
[1] = Inhibition of Leishmania donovani chagasi beta-carbonic anhydrase preincubated for 15 mins by stopped-flow CO2 hydration assay
[2] = Inhibition of Plasmodium falciparum eta-carbonic anhydrase preincubated for 15 mins by stopped-flow CO2 hydration assay
[3] = Inhibition of Porphyromonas gingivalis gamma-carbonic anhydrase preincubated for 15 mins by stopped-flow CO2 hydration assay
[4] = Inhibition of Vibrio cholerae alpha-carbonic anhydrase preincubated for 15 mins by stopped-flow CO2 hydration assay
[5] = Inhibition of Porphyromonas gingivalis beta-carbonic anhydrase preincubated for 15 mins by stopped-flow CO2 hydration assay
[6] = Inhibition of Trypanosoma cruzi alpha-carbonic anhydrase preincubated for 15 mins by stopped-flow CO2 hydration assay
[7] = Inhibition of Cryptococcus neoformans beta-carbonic anhydrase preincubated for 15 mins by stopped-flow CO2 hydration assay
[8] = Inhibition of Candida glabrata beta-carbonic anhydrase preincubated for 15 mins by stopped-flow CO2 hydration assay; parameters: species or system Nakaseomyces glabratus

Compound	Ki [1] [nM]	Ki [2] [nM]	Ki [3] [nM]	Ki [4] [nM]	Ki [5] [nM]	Ki [6] [nM]	Ki [7] [nM]	Ki [8] [nM]
NS(=O)(=O)c1ccc(C(=O)NCCNC(=O)CCN(CCC(=O)NCCNC(=O)c2ccc(S(N)(=O)=O)cc2)CCN(CCC(=O)NCCNC(=O)c2ccc(S(N)(=O)=O)cc2)CCC(=O)NCCNC(=O)c2ccc(S(N)(=O)=O)cc2)cc1	75.4	69.7	405	47.2	84.9	17.7	24	427
NS(=O)(=O)c1ccc(C(=O)NCCNC(=O)CCN(CCNC(=O)CCN(CCC(=O)NCCN(CCC(=O)NCCNC(=O)c2ccc(S(N)(=O)=O)cc2)CCC(=O)NCCNC(=O)c2ccc(S(N)(=O)=O)cc2)CCN(CCC(=O)NCCN(CCC(=O)NCCNC(=O)c2ccc(S(N)(=O)=O)cc2)CCC(=O)NCCNC(=O)c2ccc(S(N)(=O)=O)cc2)CCC(=O)NCCN(CCC(=O)NCCNC(=O)c2ccc(S(N)(=O)=O)cc2)CCC(=O)NCCNC(=O)c2ccc(S(N)(=O)=O)cc2)CCC(=O)NCCNC(=O)c2ccc(S(N)(=O)=O)cc2)cc1	85.6	58.6	563	8.1	77	95.4	83.6	342
